Legend:
Conditions in all cases: 72 h
[1] = tested on: HepG2; test: relative viability EC50 (midpoint between 100% and the lowest measured viability); higher = less toxic
[2] = tested on: Calu-3; test: as above
[3] = tested on: U2OS; test: as above
[4] = tested on: Vero E6; test: as above
[5] = tested on: Caco-2; test: as above
[6] = tested on: HepG2; test: drug sensitivity score (DSS) for viability; higher = more toxic; extreme values may be limits of the assay
[7] = tested on: Calu-3; test: as above
[8] = tested on: U2OS; test: as above
[9] = tested on: Vero E6; test: as above
[10] = tested on: Caco-2; test: as above
[11] = tested on: HepG2; test: cell viability relative to DMSO; higher = less toxic
[12] = tested on: Calu-3; test: as above
[13] = tested on: U2OS; test: as above
[14] = tested on: Vero E6; test: as above
[15] = tested on: Caco-2; test: as above

Row | Compound | relative viability EC50 [1] | relative viability EC50 [2] | relative viability EC50 [3] | relative viability EC50 [4] | relative viability EC50 [5] | drug sensitivity score [6] | drug sensitivity score [7] | drug sensitivity score [8] | drug sensitivity score [9] | drug sensitivity score [10] | cell viability ([11]; 1 nM) | cell viability ([11]; 10 nM) | cell viability ([11]; 100 nM) | cell viability ([11]; 1000 nM) | cell viability ([11]; 10000 nM) | cell viability ([12]; 1 nM) | cell viability ([12]; 10 nM) | cell viability ([12]; 100 nM) | cell viability ([12]; 1000 nM) | cell viability ([12]; 10000 nM) | cell viability ([13]; 1 nM) | cell viability ([13]; 10 nM) | cell viability ([13]; 100 nM) | cell viability ([13]; 1000 nM) | cell viability ([13]; 10000 nM) | cell viability ([14]; 1 nM) | cell viability ([14]; 10 nM) | cell viability ([14]; 100 nM) | cell viability ([14]; 1000 nM) | cell viability ([14]; 10000 nM) | cell viability ([15]; 1 nM) | cell viability ([15]; 10 nM) | cell viability ([15]; 100 nM) | cell viability ([15]; 1000 nM) | cell viability ([15]; 10000 nM)
1 | CN1CCN(c2ccc3ccccc3n2)CC1 [N-methylquipazine] | > 10 µM | > 10 µM | > 10 µM | > 10 µM | > 10 µM | 0 | 0 | 0 | 0 | 0 | 99.4% | 96.1% | 98% | 102% | 111% | 106% | 96.2% | 99.2% | 96.4% | 95.1% | 101% | 99.4% | 102% | 96.8% | 98.9% | 97.7% | 97.8% | 95.7% | 97.1% | 111% | 102% | 91.4% | 104% | 97.3% | 102%
2 | CC(C)NCCN(C(C)C)S(=O)(=O)c1ccc(Cl)cc1Cl [RN-1734] | > 10 µM | > 10 µM | > 10 µM | > 10 µM | > 10 µM | 0.4 | 0 | 0 | 0 | 0 | 99.8% | 89.7% | 102% | 96.8% | 85.9% | 97.1% | 101% | 95.6% | 99.8% | 99.6% | 99.3% | 98.4% | 101% | 95.4% | 94.7% | 97% | 100% | 94.2% | 96.7% | 91.2% | 105% | 95.1% | 97.1% | 94.6% | 97.4%
3 | Cc1ccc(O)c(N=Nc2ccccc2)n1 [SIB-1757] | > 10 µM | > 10 µM | > 10 µM | > 10 µM | > 10 µM | 0 | 0 | 0 | 0 | 0.1 | 108% | 110% | 107% | 108% | 94.5% | 99.8% | 107% | 111% | 99.9% | 92.8% | 104% | 107% | 102% | 103% | 95.9% | 98.1% | 94.6% | 96.7% | 99% | 92.5% | 92.4% | 103% | 98.6% | 103% | 86.2%
4 | C=CCN1C[C@H](C)N([C@H](c2ccc(C(=O)N(CC)CC)cc2)c2cccc(OC)c2)C[C@H]1C [SNC-80] | > 10 µM | > 10 µM | > 10 µM | > 10 µM | > 10 µM | 0 | 0 | 0 | 0 | 0 | 99.9% | 84.6% | 100% | 106% | 97.4% | 93.4% | 98.8% | 101% | 91.2% | 104% | 98.4% | 103% | 93.4% | 99.4% | 94.7% | 106% | 97.7% | 105% | 102% | 101% | 92.1% | 99.2% | 101% | 95.5% | 93.7%
